This experiment addresses T1, Human autotaxin enzyme (Homo sapiens, UniProt Q13822).
T1 construct: purchased R&D System
As to the kind of experiment: Evaluation of autotaxin inhibitor, Method C (Test Example 3): 18:0 Lyso PC, choline assay, Resorufin fluorescence. Format: biochemical. As to the method: (Method C) Evaluation of Autotaxin Inhibitor
Solution B containing 100 mM Tris-HCl buffer (pH7.5), 150 mM NaCl, 5 mM MgCl2 and 0.05% Triton X-100 was prepared. Human autotaxin enzyme (purchased from R&D System) was diluted with Solution B, and 2.5 μL of which was added to a solution of test compound in DMSO. Furthermore, 2.5 μl of 200 μM 18:0 Lyso PC (purchased from Avanti Polar Lipids) in Solution B was added and allowed to react at room temperature for 2 hours. After completion of the reaction, 15 μL of the coline assay reagent (100 mM Tris-HCl buffer (pH7.5), 5 mM MgCl2, 77 μg/mL choline oxidase, 10 μg/mL peroxidase, 25 μM 10-acetyl-3,7-dihydroxyphenoxazine and excess autotaxin inhibitor) was added and allowed to react at room temperature for 20 minutes. The fluorescent dye Resorufin, which was produced by the reaction, was detected. The fluorescence was detected using ViewLux (PerkinElmer, Inc.) with an excitation wavelength of 531 nm and a fluorescence wavelength of 598 nm.
The percent inhibition of the test compound was calculated by assuming the sample with no test compound as 0% inhibition and the sample with no enzyme as 100% inhibition, and the percent inhibitions at different concentrations of the test compound were plotted to obtain a concentration-dependent curve.

Where [1] appears, read: Assay Method C (Test Example 3), human autotaxin, 18:0 Lyso PC substrate, read-out: Inhibitory Activity (autotaxin enzyme inhibitory activity, IC50 class).
[2] abbreviates: Assay Method C, human autotaxin, 18:0 Lyso PC substrate, read-out: Inhibitory Activity.

We go through 58 molecules from patent US20160002247A1, “8-SUBSTITUTED IMIDAZOPYRIMIDINONE DERIVATIVE HAVING AUTOTAXIN INHIBITORY ACTIVITY” (THE UNIVERSITY OF TOKYO, priority 2013, published 2016).

Like-named read-outs stand apart in the source and are kept apart here.

In the case of `CCCCCn1c(-c2ccc(C(=O)NCCN(C)C)cc2)cc(=O)n2cc(-c3ccc(Cl)cc3)nc12` [Compound 413], the IC50 under setting [1] lay in the range of 10 to 100 nM.
Still for that read-out and setting: the same measure for `CCCCCn1c(-c2cccc(N3CCOCC3)c2)cc(=O)n2cc(-c3ccc(Cl)cc3)nc12` [Compound 445]: 100 to 1000 nM.
Still for that read-out and setting: with `CCCCCn1c(-c2ccc(C(=O)NCCCn3cc(-c4cccnc4)cn3)cc2)cc(=O)n2cc(-c3ccc(Cl)cc3)nc12` [Compound 520] the figure was 10 to 100 nM; with `CCCCCn1c(N2CCC[C@H]2C(=O)NCC(=O)O)cc(=O)n2cc(-c3ccc(Cl)cc3)nc12` [Compound 348], under 10 nM.
The same measure, in the same setting: the same measure for `CCCCCn1c(N2CCN(C(=O)OC(C)(C)C)C[C@H]2C(=O)NCC(=O)O)cc(=O)n2cc(-c3ccc(Cl)cc3)nc12` [Compound 632]: 10 to 100 nM.
As for `CCCCCn1c(-c2ccc(C(=O)NCCc3c[nH]cn3)cc2)cc(=O)n2cc(-c3ccc(Cl)cc3)nc12` [Compound 523], the IC50 under setting [1] was 10 to 100 nM.
As for `O=C(Cc1cn(CCCC(F)(F)F)c2nc(-c3ccc(Cl)cc3)cn2c1=O)NCCO` [Compound 843], under setting [2], the IC50 was over 1000 nM.
Consider `CCCCCn1c(/N=C(\C)OCCC)cc(=O)n2cc(-c3ccc(Cl)cc3)nc12` [Compound 561], for which, under setting [1], the IC50 is over 1000 nM.
On to `O=C(Cc1cn(CCCC(F)(F)F)c2nc(-c3ccc(Cl)cc3)cn2c1=O)N[C@H]1CCN(C2COC2)C1` [Compound 852], for which, under setting [2], the IC50 was over 1000 nM.
Consider `CCCCCn1c(N2CCC[C@H]2C(=O)NCCN2CCCCC2)cc(=O)n2cc(-c3ccc(Cl)cc3)nc12` [Compound 643], for which the IC50 under setting [1] is 100 to 1000 nM.
In the case of `CCCCCn1c(N2CCC[C@H]2C(=O)N[C@@H](Cc2cccc3ccccc23)C(=O)O)cc(=O)n2cc(-c3ccc(Cl)cc3)nc12` [Compound 724], the IC50 under setting [1] is under 10 nM.
The same measure, in the same setting: the same measure for `Cn1c(N2C[C@H](O)C[C@H]2C(=O)N[C@@H](Cc2ccccc2)C(=O)O)cc(=O)n2cc(-c3ccc(Cl)cc3)nc12` [Compound 772]: 100 to 1000 nM; for `CCCCCn1c(N2CCCC[C@H]2C(=O)NCCC(=O)O)cc(=O)n2cc(-c3ccc(Cl)cc3)nc12` [Compound 621]: under 10 nM; for `O=C(O)c1ccc(-c2cc(=O)n3cc([C@H]4CC[C@H](C(F)(F)F)CC4)nc3n2CCCC(F)(F)F)cc1` [Compound 164]: 10 to 100 nM.
Same read-out and setting: the same measure for `CCCCCn1c(NC(C)=O)cc(=O)n2cc(-c3ccc(Cl)cc3)nc12` [Compound 333]: 100 to 1000 nM; for `CCCCCn1c(NCCCC(=O)O)cc(=O)n2cc(-c3ccc(Cl)cc3)nc12` [Compound 607]: 10 to 100 nM.
As for `O=C(Cc1cn(CCCC(F)(F)F)c2nc(-c3ccc(Cl)cc3)cn2c1=O)N[C@@H](CO)Cc1ccccc1` [Compound 848], the IC50 under setting [2] was over 1000 nM.
Regarding `CCCCCn1c(N2CCC[C@H]2C(=O)Nc2ccccc2)cc(=O)n2cc(-c3ccc(Cl)cc3)nc12` [Compound 318], under setting [1], the IC50 lay in the range of 100 to 1000 nM.
Still for that read-out and setting: with `CCCCCn1c(-c2ccc(C(=O)NCCS(=O)(=O)N3CCOCC3)cc2)cc(=O)n2cc(-c3ccc(Cl)cc3)nc12` [Compound 501] the figure was 10 to 100 nM; with `CCCCCn1c(NCCCCC(=O)O)cc(=O)n2cc(-c3ccc(Cl)cc3)nc12` [Compound 611], 10 to 100 nM.
As to `CCCCCn1c(N2CCC[C@H]2C(=O)NC2CCNC2=O)cc(=O)n2cc(-c3ccc(Cl)cc3)nc12` (stereo partly shown) [Compound 700], the IC50 under setting [1] was 10 to 100 nM.
The same measure, in the same setting: with `CCCCCn1c(N2CCC[C@H]2C(=O)N(C)CCC#N)cc(=O)n2cc(-c3ccc(Cl)cc3)nc12` [Compound 336] the figure was 10 to 100 nM.
Take `O=C(O)c1cccc(Cc2cn(CC3CC3)c3nc(-c4ccc(Cl)cc4)cn3c2=O)c1` [Compound 823]: under setting [2], the IC50 lay within 10 to 100 nM.
In the case of `CCCCCn1c(N2CCCC2Cc2ccccc2)cc(=O)n2cc(-c3ccc(Cl)cc3)nc12` (stereo not shown) [Compound 320], the IC50 under setting [1] lay in the range of 100 to 1000 nM.
The same measure, in the same setting: the same measure for `CCCCCn1c(-c2ccc(C(=O)N3CCN(S(C)(=O)=O)CC3)cc2)cc(=O)n2cc(-c3ccc(Cl)cc3)nc12` [Compound 498]: 10 to 100 nM.
The same measure, in the same setting: with `CCCCCn1c(N[C@@H]2CCC[C@H]2C(=O)O)cc(=O)n2cc(-c3ccc(Cl)cc3)nc12` [Compound 613] the figure was 10 to 100 nM; with `CC(C)(NC(=O)[C@@H]1C[C@@H](O)CN1c1cc(=O)n2cc(-c3ccc(Cl)cc3)nc2n1Cc1ccccc1)C(=O)O` [Compound 753], under 10 nM; with `CCCCCn1c(-c2ccc(C(=O)NC3CN4CCC3CC4)cc2)cc(=O)n2cc(-c3ccc(Cl)cc3)nc12` (stereo not shown) [Compound 510], under 10 nM.
On the same count and under the same terms, the same measure for `CCCCCn1c(-c2ccc(C(=O)NCc3ccccn3)cc2)cc(=O)n2cc(-c3ccc(Cl)cc3)nc12` [Compound 507]: 10 to 100 nM.
For the molecule `CCn1c(N2C[C@H](O)C[C@H]2C(=O)N[C@@H](Cc2ccccc2)C(=O)O)cc(=O)n2cc(-c3ccc(Cl)cc3)nc12` [Compound 761], the IC50 under setting [1] is 100 to 1000 nM.
As to `CCCCCn1c(-c2cnc(C(=O)NCCC(=O)OC)nc2)cc(=O)n2cc(-c3ccc(Cl)cc3)nc12` [Compound 534], the IC50 under setting [1] is under 10 nM.
Same read-out and setting: the same measure for `CCCCCn1c(N2C[C@@H](O)C[C@H]2C(=O)NCCC(=O)OCC)cc(=O)n2cc(-c3ccc(Cl)cc3)nc12` [Compound 594]: 10 to 100 nM.
Consider `CCCCCn1c(-c2ccc(C(=O)NC(CO)CO)cc2)cc(=O)n2cc(-c3ccc(Cl)cc3)nc12` [Compound 482], for which, under setting [1], the IC50 was under 10 nM.
For `C#CCNC(=O)c1ccc(-c2cc(=O)n3cc(-c4ccc(Cl)cc4)nc3n2CCCCC)cc1` [Compound 484], under setting [1], the IC50 lay within 10 to 100 nM.
Same read-out and setting: the same measure for `CCCCCn1c(N2CCC[C@H]2C(=O)N(C)CC(N)=O)cc(=O)n2cc(-c3ccc(Cl)cc3)nc12` [Compound 704]: 10 to 100 nM; for `CCCCCn1c(N2CCC[C@H]2CC(=O)NCCC(=O)O)cc(=O)n2cc(-c3ccc(Cl)cc3)nc12` [Compound 615]: under 10 nM; for `CCCCCn1c(N2CCC[C@@]2(C)C(=O)O)cc(=O)n2cc(-c3ccc(Cl)cc3)nc12` [Compound 606]: over 1000 nM.
On the same count and under the same terms, with `CCCCCn1c(N2C[C@H](F)C[C@H]2C(=O)NC(C)(C)CC(=O)O)cc(=O)n2cc(-c3ccc(Cl)cc3)nc12` [Compound 583] the figure was under 10 nM; with `CC(C)(NC(=O)[C@@H]1CCCN1c1cc(=O)n2cc(-c3ccc(Cl)cc3)nc2n1Cc1ccccc1)C(=O)O` [Compound 747], 10 to 100 nM; with `CCCCCn1c(O[C@@H]2CCN(C(=O)OC(C)(C)C)C2)cc(=O)n2cc(-c3ccc(Cl)cc3)nc12` [Compound 550], 100 to 1000 nM.
Take `CCCCCn1c(N2CCC[C@H](C(=O)NCC(=O)O)C2)cc(=O)n2cc(-c3ccc(Cl)cc3)nc12` [Compound 629]: under setting [1], the IC50 was under 10 nM.
Same read-out and setting: the same measure for `CCCCCn1c(-c2cnc(OC)c(Cl)c2)cc(=O)n2cc(-c3ccc(Cl)cc3)nc12` [Compound 458]: 100 to 1000 nM; for `CCCCCn1c(N2CCCC(CC(=O)O)C2)cc(=O)n2cc(-c3ccc(Cl)cc3)nc12` (stereo not shown) [Compound 319]: 10 to 100 nM; for `CCCCCn1c(N2CC=CC2)cc(=O)n2cc(-c3ccc(Cl)cc3)nc12` [Compound 309]: 10 to 100 nM.
The same measure, in the same setting: with `Cn1c(N2CCC[C@H]2C(=O)N[C@@H](CCc2ccccc2)C(=O)O)cc(=O)n2cc(-c3ccc(Cl)cc3)nc12` [Compound 769] the figure was 10 to 100 nM.
On the same count and under the same terms, the same measure for `CCCCCn1c(/N=C(\C)OCCCOCOC)cc(=O)n2cc(-c3ccc(Cl)cc3)nc12` [Compound 563]: 100 to 1000 nM; for `CCCCCn1c(N2CCC[C@H]2C(=O)NCCCCC(=O)O)cc(=O)n2cc(-c3ccc(Cl)cc3)nc12` [Compound 345]: under 10 nM.
As for `CCCCCn1c(O[C@H]2CCNC2)cc(=O)n2cc(-c3ccc(Cl)cc3)nc12` [Compound 572], under setting [1], the IC50 is 10 to 100 nM.
Regarding `CCCCCn1c(-c2ccc(CC)cc2)cc(=O)n2cc(-c3ccc(Cl)cc3)nc12` [Compound 435], the IC50 under setting [1] was 100 to 1000 nM.
Regarding `N#Cc1ccc(-c2cn3c(=O)cc(-c4ccc(C(N)=O)cc4)n(CCCC(F)(F)F)c3n2)cc1` [Compound 388], the IC50 under setting [1] fell in the range of 10 to 100 nM.
The same measure, in the same setting: with `CCn1c(N2C[C@H](O)C[C@H]2C(=O)N[C@@H](C)C(=O)O)cc(=O)n2cc(-c3ccc(Cl)cc3)nc12` [Compound 766] the figure was 10 to 100 nM.
On the same count and under the same terms, the same measure for `CCCCCn1c(-c2ccc(NC(=O)N3CCOCC3)cc2)cc(=O)n2cc(-c3ccc(Cl)cc3)nc12` [Compound 437]: 10 to 100 nM; for `CCCCCn1c(-c2cnc(O)nc2)cc(=O)n2cc(-c3ccc(Cl)cc3)nc12` [Compound 463]: 10 to 100 nM.
With `N#CCNC(=O)Cc1cn(CCCC(F)(F)F)c2nc(-c3ccc(Cl)cc3)cn2c1=O` [Compound 829], the IC50 under setting [2] was 100 to 1000 nM.
Turning to `Cc1cc(=O)n2cc(-c3ccc(Cl)cc3)nc2n1CCCCC#N` [Compound 63], the IC50 (Assay Method: Method C (Test Example 3), read-out: Inhibitory Activity (Enzyme Inhibitory Activity, IC50)) was 100 to 1000 nM.
Turning to `CCCCCn1c(N2CCC[C@H]2C(=O)Nc2ccc(OC)c(O)c2)cc(=O)n2cc(-c3ccc(Cl)cc3)nc12` [Compound 798], the IC50 under setting [2] is 100 to 1000 nM.
Take `O=C(Cc1cn(CCCC(F)(F)F)c2nc(-c3ccc(Cl)cc3)cn2c1=O)N1CCOCC1` [Compound 865]: the IC50 under setting [2] lay in the range of 100 to 1000 nM.
As for `CCCCCn1c(N2CCC[C@H]2C(=O)NCCn2ccnc2)cc(=O)n2cc(-c3ccc(Cl)cc3)nc12` [Compound 342], the IC50 under setting [1] lay in the range of 100 to 1000 nM.
